Values of other authors in patent US20250339446A1 (Kessler Foundation Inc., priority 2016, published 2025).

Key:
[1] = test system: bone mineral density (BMD); details: rat, hind limb unweighting; cited from earlier work
BMD in the vertebrae = details: men with idiopathic osteoporosis; cited from earlier work
[2] = test system: muscle mass, muscle strength, and bone; details: androgen-deficient men and older men with low testosterone levels; testosterone alone; cited from earlier work
[3] = daily administration; cited from earlier work

| SMILES | immobilization-related decrease in BMD [1] | BMD in the vertebrae (BMD in the vertebrae) | muscle mass, muscle strength, and bone [2] | absorption and elimination after transdermal application [3] |
| --- | --- | --- | --- | --- |
| C[C@]12CC[C@H]3[C@@H](CCC4=CC(=O)CC[C@@]43C)[C@@H]1CC[C@@H]2O [testosterone] | blocked much of the immobilization-related decrease in BMD | increased BMD in the vertebrae | increase muscle mass, muscle strength, and bone | absorbed and eliminated over the course of a day |
| C[C@]12CC[C@H]3[C@@H](CCC4=CC(=O)CC[C@@H]43)[C@@H]1CC[C@@H]2O [nandrolone] | blocked much of the immobilization-related decrease in BMD |  |  |  |
